Test results published in patent publication US4092350A, “Alkanoic acid, process for its production and method of use thereof” (priority 1975, dated 1978).
Where two headings read alike, the source gives them in different places.

Key:
[1] = tested on: Granuloma Formation; assay: Inhibition of Granuloma Formation by Granuloma Pouch Method; assay type: in vivo, male Wistar rats; details: Rattus norvegicus, 144 h; for ED20: read-out: ED20, Inhibition of Granuloma Formation by Granuloma Pouch Method
Method: (§1) (c) Inhibition of Granuloma Formation by Gramuloma Pouch Method
(§2) Thereafter, the compounds were administered orally. Beginning the next day, the compounds were administered orally at 9:00 a.m. and 4:00 p.m. for 6 days. The day after final administration, the granuloma pouches were removed and weighed. Inhibitory percentage was calculated as follows: [formula] (d) Acute Toxicity

[2] = tested on: Carrageenin-Induced Paw Edema; assay: Inhibition of Carrageenin-Induced Paw Edema; assay type: in vivo, male Donryu rats; details: Rattus norvegicus, rats, oral; for ED40: 3 h
Method: (§3) (a) Inhibition of Carrageenin-Induced Paw Edema
(§4) Following the method of C. […] The volume of the paw was measured before and 3 hours after the carrageenin injection. The swelling index of the inflamed paw was calculated as follows. [formula]
(§5) Inhibitory percentage was calculated as follows. [formula] (b) Inhibition of Intraperitoneal Dye Leakage

[3] = tested on: Intraperitoneal Dye Leakage; assay: Inhibition of Intraperitoneal Dye Leakage; assay type: in vivo, male Donryu rats; details: Rattus norvegicus, 0.75 h, rats, oral
Method: as §5
(§6) Five minutes thereafter, 0.2 ml. / 100 g. body weight of 3% acetic acid was injected intraperitoneally. The dye in the peritoneal exudation, sampled 45 minutes after the acetic acid injection, was subjected to the spectro-photometric estimation at 620 mμ. Inhibitory percentage was calculated as follows. [formula]

[4] = in vivo; details: rats, oral, 7-day observation
Method: as §2
The compounds were administered orally in male Wistar rats weighing 200 ± 10 g. The rats were observed over a 7-day period.

[5] = Inhibition of Granuloma Formation by Granuloma Pouch Method; assay type: in vivo, male Wistar rats; details: rat, in vivo; rats, oral; ratio of LD50 to ED20; read-out: LD50/ED20, Granuloma Pouch Method (safety margin)
Method: as §1, §2

[6] = Inhibition of Carrageenin-Induced Paw Edema; assay type: in vivo, male Donryu rats; details: rat, in vivo; rats, oral; ratio of LD50 to ED40; read-out: LD50/ED40, Carrageenin-Induced Paw Edema (safety margin)
Method: as §3, §4, §5

[7] = tested on: Granuloma Formation; assay: Inhibition of Granuloma Formation by Cotton Pellet Method; assay type: in vivo, male Donryu rats; details: Rattus norvegicus, 72 h; rats, oral, twice daily for 3 days
Method: (§7) (e) Inhibition of Granuloma Formation by Cotton Pellet Method
(§8) Following the method of C. […] Thereafter, the compounds were administered orally. Beginning the next day, the compounds were administered orally at 9:00 a.m. and 4:00 p.m. for 3 days. The day after final administration, the pellets were removed, dried and weighed to determine the weight of the granuloma formed around the pellets. Inhibitory percentage was calculated as follows: [formula] (f) Analgesic Activity by Acetylcholine-Induced Writhing Method in Mice

[8] = as above; assay type: in vivo, male Donryu rats; details: rat, in vivo; rats, oral; ratio of LD50 to ED20; read-out: LD50/ED20, Cotton Pellet Method (safety margin)
Method: as §7, §8

[9] = tested on: Acetylcholine-Induced Writhing; assay: Analgesic Activity by Acetylcholine-Induced Writhing Method in Mice; assay type: in vivo, male SLC-ICR mice; details: Mus musculus, oral, 60 minutes before acetylcholine
Method: Following the method of C. A. Winter, et al. (J. Pharmac. Exp., Ther., 141, 369 (1963)), in male Donryu rats weighing 130 ± 10 g., two sterilized cotton pellets weighing 35 ± 1 mg. respectively were embedded subcutaneously at the lateral abdomen aseptically. Thereafter, the compounds were administered orally. Beginning the next day, the compounds were administered orally at 9:00 a.m. and 4:00 p.m. for 3 days. The day after final administration, the pellets were removed, dried and weighed to determine the weight of the granuloma formed around the pellets. Inhibitory percentage was calculated as follows: [formula] (f) Analgesic Activity by Acetylcholine-Induced Writhing Method in Mice
Following the method of S. S. Adams (Arch. Int. Pharmacodyn., 178, 115 (1969)), in male SLC-ICR mice weighing 20 ± 1 g., the writhing response was caused by the intraperitoneal injection of 0.1 ml. / 10 g. body weight of 7.5 mg. / kg. acetylcholine dissolved in physiological saline. The test compounds were administered orally 60 minutes before the acetylcholine injection, after which the frequency of response was counted in each animal for 8 minutes. Inhibitory percentage was calculated as follows. [formula] Note; Compound A: 2-[4-(2-methyl-3-oxobutyl)phenyl]propionic acid, […]

[10] = Inhibition of Intraperitoneal Dye Leakage; assay type: in vivo, male Donryu rats; details: rat, in vivo; rats, oral; ratio of LD50 to ED30; read-out: LD50/ED30, Intraperitoneal Dye Leakage (safety margin)
Method: as §5, §6

[11] = po, read-out: Inhibition of Granuloma Formation by Granuloma Pouch Method, Inhibition (%)

SMILES	inhibition at 2 mg/kg ([2]; 3 hours after carrageenin) [%]	inhibition at 0.5 mg/kg ([3]; 45 minutes after acetic acid) [%]	Acute Toxicity, Died/Treated ([4]; 125 mg/kg)	ED20 ([1]; po) [mg/kg]	ED40 [2] [mg/kg]	ED20 [7] [mg/kg]	ED50 [9] [mg/kg]	ED30 [3] [mg/kg]	inhibition at 3 mg/kg ([2]; 3 hours after carrageenin) [%]	inhibition at 2 mg/kg ([3]; 45 minutes after acetic acid) [%]	Acute Toxicity, Died/Treated ([4]; 250 mg/kg)	other results
CCC(Cc1ccc(C(C)C(=O)O)cc1)C(C)=O (centres unmarked) [Compound C, 2-[4-(2-ethyl-3-oxobutyl)phenyl]propionic acid]	35.2	28.2	2/8	–	–	–	–	–	–	–	–	inhibition at 1 mg/kg ([1]; rats, oral, 1 mg/kg, twice daily for 6 days, read-out: Inhibition of Granuloma Formation by Granuloma Pouch Method, Inhibition (%)): 22.7%
CCC(Cc1ccc(C(C)C(=O)O)cc1)C(C)O (centres unmarked) [Compound D, 2-[4-(2-ethyl-3-hydroxybutyl)phenyl]propionic acid]	38.1	34.4	3/8	0.73	2.5	0.33	2.7	0.31	–	–	–	inhibition at 1 mg/kg [1, 11]: 23.5%; selectivity ratio [5]: 181; selectivity ratio [6]: 52.8; selectivity ratio [8]: 400; selectivity ratio [10]: 426; LD50 at 168 h ([4]; rat, in vivo, read-out: Acute Toxicity LD50): 132 mg/kg
CC(=O)C(C)Cc1ccc(C(C)C(=O)O)cc1 (centres unmarked) [Compound A, 2-[4-(2-methyl-3-oxobutyl)phenyl]propionic acid]	–	–	–	–	–	–	–	–	31.7	30.6	1/8	inhibition at 8 mg/kg ([1]; rats, oral, 8 mg/kg, twice daily for 6 days): 22.3%
CC(C(=O)O)c1ccc(CC(C)C(C)O)cc1 (centres unmarked) [Compound B, 2-[4-(2-methyl-3-hydroxybutyl)phenyl]propionic acid]	–	–	–	–	–	–	–	–	34.9	35.3	1/8	inhibition at 6 mg/kg ([1]; rats, oral, 6 mg/kg, twice daily for 6 days): 24.2%
CC(C)Cc1ccc(C(C)C(=O)O)cc1 (centres unmarked) [Ibuprofen, reference compound]	–	–	–	42	16	22	4.7	17	–	–	–	inhibition at 50 mg/kg [1, 11]: 21.1%; inhibition at 10 mg/kg ([2]; 10 mg/kg, 3 hours after carrageenin): 31.2%; inhibition at 10 mg/kg ([3]; 10 mg/kg, 45 minutes after acetic acid): 17.8%; Acute Toxicity, Died/Treated ([4]; 625 mg/kg): 3/8
